Results taken from US20090054481A1 (priority 2003, published 2009).
Where a name gives a salt, the structure may show the parent alone.

Columns and labels:
[1] = Dissolution rate of micronized drug substance (background statement); type: physicochemical; conditions: agglomerating drug substance
[2] = 25° C., cited from earlier work
[3] = cited from earlier work

## CC(C)(C)NC(=O)[C@@H]1C[C@@H]2CCCC[C@@H]2CN1C[C@@H](O)[C@H](Cc1ccccc1)NC(=O)[C@H](CC(N)=O)NC(=O)c1ccc2ccccc2n1 [Micronized saquinavir mesylate, saquinavir mesylate]
[1]
  dissolution rate (in words): slow dissolution rate

## CC(C)(C)NC(=O)[C@@H]1C[C@@H]2CCCC[C@@H]2CN1C[C@@H](O)[C@H](Cc1ccccc1)NC(=O)[C@H](CC(N)=O)NC(=O)c1ccc2ccccc2n1 [Saquinavir mesylate]
[2]; simulated gastric fluid
  solubility in simulated gastric fluid: 80 µg/mL
[2]; simulated intestinal fluid
  solubility in simulated intestinal fluid: practically insoluble

## CC(C)(C)NC(=O)[C@@H]1C[C@@H]2CCCC[C@@H]2CN1C[C@@H](O)[C@H](Cc1ccccc1)NC(=O)[C@H](CC(N)=O)NC(=O)c1ccc2ccccc2n1 [saquinavir]
[3]; 8 healthy volunteers, single 600 mg dose (3×200 mg capsules) following a high fat breakfast, CV 73%
  Absolute bioavailability (average): 4%
[3]; 8 healthy volunteers, single 600 mg dose (3×200 mg capsules) following a high fat breakfast
  Absolute bioavailability (range): 1-9%
[3]; n=6, on average
  24-hour AUC and Cmax after a higher calorie meal versus a lower calorie meal: two times higher
